Read-outs that look alike come from different tables or passages of the source. Ends that are not written are not given here.
Assays:
[1] = target: T1, porcine pancreatic α-amylase (Sus scrofa, UniProt P00690); assay: α-amylase inhibition assay; type: biochemical
T1 construct: purchased SRL (Sisco Research Laboratories)
T1 sequence (P00690 16-511): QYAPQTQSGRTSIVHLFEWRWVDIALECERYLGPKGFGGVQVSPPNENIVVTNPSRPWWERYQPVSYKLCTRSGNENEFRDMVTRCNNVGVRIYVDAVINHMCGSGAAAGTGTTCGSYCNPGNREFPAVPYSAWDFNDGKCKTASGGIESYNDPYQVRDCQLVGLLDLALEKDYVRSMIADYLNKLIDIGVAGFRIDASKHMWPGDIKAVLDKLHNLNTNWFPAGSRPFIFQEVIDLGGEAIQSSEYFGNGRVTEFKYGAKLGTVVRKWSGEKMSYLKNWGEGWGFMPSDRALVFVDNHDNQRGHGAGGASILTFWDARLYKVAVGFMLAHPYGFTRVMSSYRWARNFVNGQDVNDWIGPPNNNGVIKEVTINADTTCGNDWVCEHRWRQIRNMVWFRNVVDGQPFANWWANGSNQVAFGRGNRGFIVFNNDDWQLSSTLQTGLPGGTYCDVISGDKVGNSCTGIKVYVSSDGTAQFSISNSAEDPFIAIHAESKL
Protocol: The enzymatic reaction was initiated by adding the starch substrate and allowed to proceed for 15 min. The reaction was then terminated by adding the 3,5-dinitrosalicylic acid (DNSA) reagent, and the mixture was heated to boiling for 5 min. […] IC50 values were obtained from plots of percentage inhibition versus sample concentration.

aldose reductase [2] = target: T2, aldose reductase (Homo sapiens, UniProt P15121); assay: aldose reductase inhibition assay; type: biochemical
Protocol: The aldose reductase inhibition assay was performed according to the method described by Alharbi et al.. Briefly, a 1 mL reaction mixture comprised 0.87 mL of 100 mM Sodium phosphate buffer (pH 6.2), 0.05 mL of 3 mM NADPH, 0.01 mL of human aldose reductase (recombinant, 0.2 U/mL), with the enzyme’s activity being 0.2 IU/mL, and 0.02 mL of test compounds (designated as peptide 1 and peptide 2) at different concentrations. 0.05 mL of the substrate (DL-glyceraldehyde, five mM) was incubated in the reaction mixture for 3 min at 25 °C. Enzyme activity was determined by measuring the reduction in NADPH absorption at 340 nm over 10 min. […] Aldose reductase inhibitory activity was expressed as the percentage of inhibition.

human erythrocytes = assay: hemolytic assay; type: cell-based; details: for Hemolytic Assay (HC50) (value in bracket): red cells of human, 24 h
Protocol: The hemolytic potential of the lead peptides was determined following an established erythrocyte hemolysis protocol. In brief, 15 mL of venous blood was drawn from a healthy individual, centrifuged at 3000 rpm for 10 min, and the plasma was discarded. The residual pellet (RBCs) was washed 3 times with PBS (pH 7.4, 0.1 M), and the resultant pellet was resuspended in PBS in a 1:10 ratio. Subsequently, 0.9 mL of the RBC suspension was incubated with 0.1 mL of peptides at various concentrations, a negative control (100 μL PBS + 900 μL RBC suspension), and a positive control (100 μL of 0.5% Triton-X-100 + 900 μL of RBC suspension), and incubated at 37 °C for 24 h. Post incubation, all tubes were centrifuged at 3000 rpm for 10 min. 0.1 mL of the supernatant was then transferred to 96-well plates, and the absorbance of the supernatant was read at 540 nm. […] The corrected values were calculated as Acontrol=Apos−Aneg and Asample=Atest−Aneg where Apos , Aneg and Atest are the absorbance values of the positive control, negative control, and peptide-treated sample (given concentration), respectively.

yeast α-glucosidase = assay: α-glucosidase inhibition assay; type: biochemical, Saccharomyces cerevisiae; details: for IC50: read-out: α-Glucosidase Inhibition IC50 (value in bracket) (converted)
Protocol: The α-glucosidase inhibition assay was performed following the method described by Huligere et al.. […] In this assay, one unit of activity was defined as the amount of enzyme required to release one µmol of p-nitrophenol from pNPG per minute under the specified experimental conditions. […] The reaction was maintained at 37 °C for an additional 20 min. Enzyme activity was determined by measuring the absorbance of liberated p-nitrophenol at 405 nm using a microplate reader (Spectramax i3, Molecular Devices, LLC, San Jose, CA, USA). […] IC50 values were determined by relating the percentage inhibition of each sample to its concentration.

[3] = methylglyoxal scavenging (Maillard reaction model, DNPH assay)
Protocol: This preliminary assay was conducted to evaluate the methylglyoxal scavenging activity of peptides derived from coconut milk. The Maillard reaction was employed to assess the scavenging potential of peptides against methylglyoxal, using parameters as outlined in previous studies by Risum et al., Zhu et al., and Brings et al., with modifications. The reaction mixture (1 mL) consisted of both peptides at different concentrations, methylglyoxal (0.01 mM), phosphate buffer, and water. It was incubated at two temperatures: room temperature (followed by immediate termination) and 37 °C (for 2 h). Following the incubation time, the reaction was terminated by adding 10 μL of glacial acetic acid. Creatine was used as a positive control. The experiments were performed in triplicate.
The scavenging potential of the peptides against methylglyoxal was determined using the DNPH assay. In brief, 25 μL of the sample was mixed with 975 μL of water and 1000 μL of DNPH reagent. The reaction mixture was shaken well and incubated at 37 °C for 10 min. Following incubation, the reaction was terminated by adding 1000 μL of 1.5 N NaOH, and the absorbance of the yellowish-orange complex was measured at 525 nm using […]: the MGO blank and the Creatine blank. Scavenging efficiency was calculated using Equations (4) and (5).(4) ACORR=Asample−Ablank (5) MGOscavenging=1−Acorr/AMGO,corr·100 where Asample is the absorbance of the reaction mixture containing methylglyoxal and the test compound (peptide or creatine), Ablank is the absorbance of the reagent blank (without methylglyoxal and without test compound), and AMGO,corr is the blank-corrected absorbance of the methylglyoxal blank (AMGO-Ablank). The creatine control was processed in the same way as the peptide samples.

[4] = DPPH radical scavenging assay; details: for EC50: read-out: DPPH Radical Scavenging Assay EC50 (value in bracket) (converted)
Protocol: The antioxidant assays of the test compounds were conducted in vitro, following previous studies, using the standard DPPH, ABTS, and superoxide radical scavenging assays. Regarding the DPPH assay, 0.2 mL of the test samples (peptides 1 and 2) at various concentrations was added to 1.2 mL of a 40 μg/mL DPPH solution in methanol. The mixtures were shaken vigorously and incubated in the dark for 20 min, after which the reduction in DPPH absorption was measured at 517 nm. The samples without DPPH and with methanol served as blanks. Ascorbic acid was used as the positive control.

[5] = ABTS radical scavenging assay; details: for EC50: read-out: ABTS Radical Scavenging Assay EC50 (value in bracket) (converted)
Protocol: Concerning the ABTS assay, the ABTS^•+ radical cation was generated. Subsequently, 0.05 mL of the test samples (peptides 1 and 2) at various concentrations was mixed with 4.00 mL of ABTS^•+ solution and kept in the dark at room temperature for two h. The absorbance was determined at 734 nm using a UV–Vis Spectrophotometer (UV-1280 Shimadzu, Germany). Ascorbic acid was used as the positive control, and samples without the ABTS radical solution served as blanks. The results were expressed as the effective concentration (EC50) values.

[6] = superoxide radical scavenging assay (NBT); details: for EC50: read-out: Superoxide Radical Scavenging Assay EC50 (value in bracket) (converted)
Protocol: After 10 min of incubation at 25 °C in the dark, absorbance was recorded at 560 nm. Samples without NBT served as blanks, and ascorbic acid was used as the positive control. The results were expressed as the effective concentration (EC50) values.

α-glucosidase = assay: enzyme inhibition kinetics (Lineweaver-Burk), α-glucosidase; type: biochemical, Saccharomyces cerevisiae; parameters: Vmax: unit not given here
Excerpt: (§1) Enzyme inhibition by coconut milk peptide 2 was further characterised for α-glucosidase, α-amylase and aldose reductase by steady-state kinetic analysis. […] In this context, v denotes the initial rate of product formation, whereas [S] denotes the concentration of the chromogenic or natural substrate used in each assay. Michaelis explained how v depends on [S] for each condition, as described by the Michaelis–Menten equation (Equation (2)):(2) v=VmaxS/Km+S Lineweaver–Burk double-reciprocal plots (Equation (3)) were then constructed by plotting 1/v versus 1/[S]:(3) 1/v=Km/Vmax·1/S+1/Vmax Michaelis–Menten parameters (Km and Vmax) and apparent inhibition constants (Ki) were obtained from these Lineweaver–Burk plots.

α-amylase = target: T3, α-amylase (Sus scrofa, UniProt P00690); assay: enzyme inhibition kinetics (Lineweaver-Burk), α-amylase; type: biochemical, porcine; parameters: Vmax: unit not given here
T3 construct: purchased SRL (Sisco Research Laboratories)
T3 sequence (P00690 16-511): T1 sequence (P00690 16-511)
Excerpt: as §1

aldose reductase [7] = target: T2, aldose reductase; assay: enzyme inhibition kinetics (Lineweaver-Burk), aldose reductase; type: biochemical; parameters: Vmax: unit not given here
Excerpt: as §1

[8] = cited from earlier work
human aldose reductase = target: human aldose reductase; parameters: method as in doi:10.1016/j.fbio.2025.107775; details: cited from earlier work
[9] = mean ± SD, read-out: α-Amylase Inhibition IC50 (converted)
[10] = read-out: α-Amylase Inhibition IC50 (value in bracket) (converted)
[11] = mean ± SD, read-out: Aldose Reductase Inhibition IC50 (converted)
[12] = read-out: Aldose Reductase Inhibition IC50 (value in bracket) (converted)
[13] = read-out: Methylglyoxal Scavenging EC50 at 37 °C, 2 h (value in bracket), 37 °C, 2 h
[14] = room temperature, immediate termination, read-out: Methylglyoxal Scavenging EC50 at RT (value in bracket) (converted)
[15] = mean ± SE, read-out: Ki (apparent inhibition constant) (converted)

MQIFVK [Peptide 1, MQIFVK]
IC50 [1, 9]: 115 µM | IC50 [1, 10]: 115 µM | IC50 (aldose reductase [2]; [11]): 29.4 µM | IC50 (aldose reductase [2]; [12]): 29.4 µM | Hemolytic Assay (HC50) (human erythrocytes): 220.85 ± 0.20 µg/mL | Hemolytic Assay (HC50) (value in bracket) (human erythrocytes): 288.70 µM

H-ADVFNPR-OH [Peptide 2, ADVFNPR]
IC50 (yeast α-glucosidase; listed as peptide 2): 40.1 µM | α-Glucosidase Inhibition IC50 (yeast α-glucosidase; mean ± SD): 32.82 ± 0.17 µg/mL | IC50 (yeast α-glucosidase): 40.1 µM | IC50 [1, 9]: 103 µM | IC50 [1, 10]: 103 µM | IC50 (aldose reductase [2]; [11]): 24.8 µM | IC50 (aldose reductase [2]; [12]): 24.8 µM | Methylglyoxal Scavenging EC50 at 37 °C, 2 h ([3]; 37 °C, 2 h): 182.17 ± 0.23 µg/mL | EC50 [3, 13]: 223 µM | Methylglyoxal Scavenging EC50 at RT ([3]; room temperature, immediate termination): 208.10 ± 0.65 µg/mL | EC50 [3, 14]: 254 µM | Hemolytic Assay (HC50) (human erythrocytes): 231.53 ± 0.14 µg/mL | Hemolytic Assay (HC50) (value in bracket) (human erythrocytes): 283.08 µM | DPPH Radical Scavenging Assay EC50 [4]: 22.14 ± 0.12 µg/mL | EC50 [4]: 27.1 µM | ABTS Radical Scavenging Assay EC50 [5]: 17.89 ± 0.20 µg/mL | EC50 [5]: 21.9 µM | Superoxide Radical Scavenging Assay EC50 [6]: 42.45 ± 0.30 µg/mL | EC50 [6]: 51.9 µM | Vmax (α-glucosidase; IC20—13.13 µg): 14.87 | Vmax (α-glucosidase; IC40—26.26 µg): 14.68 | Vmax (α-glucosidase; IC60—39.39 µg): 14.50 | Mode of inhibition (α-glucosidase; from Lineweaver–Burk plot): Competitive | Ki (apparent inhibition constant) (α-glucosidase; mean ± SE): 0.95 ± 0.09 µg | Vmax (essentially constant) (α-glucosidase; over IC20–IC60): ~15 µM/min | Vmax (α-amylase; IC20—33.55 µg): 27.75 | Vmax (α-amylase; IC40—67.10 µg): 26.26 | Vmax (α-amylase; IC60—100.60 µg): 27.50 | Mode of inhibition (α-amylase; from Lineweaver–Burk plot): Competitive | Ki (α-amylase; [15]): 1.64 µM | Vmax (essentially constant) (α-amylase; over IC20–IC60): ~27 µM/min | Vmax (aldose reductase [7]; IC20—8.12 µg): 46.64 | Vmax (aldose reductase [7]; IC40—16.23 µg): 46.02 | Vmax (aldose reductase [7]; IC60—24.35 µg): 45.55 | Mode of inhibition (aldose reductase [7]; from Lineweaver–Burk plot): Competitive | Ki (aldose reductase [7]; [15]): 0.954 µM | Vmax (essentially constant) (aldose reductase [7]; over IC20–IC60): ~46 µM/min

GDMNP
superoxide anion radical scavenging EC50 [8]: 400 ± 8 µg/mL

O=C(O)Cn1c(=O)n(Cc2ccc(Br)cc2F)c(=O)c2ccc(Cl)cc21 [zenarestat]
human aldose reductase IC50 (human aldose reductase): 59.68 ± 0.47 µg/mL

O=C1O[C@H]([C@@H](O)CO)C(O)=C1O [Ascorbic acid, reference compound]
DPPH Radical Scavenging Assay EC50 [4]: 28.65 ± 0.17 µg/mL | EC50 [4]: 163 µM | ABTS Radical Scavenging Assay EC50 [5]: 22.74 ± 0.27 µg/mL | EC50 [5]: 129 µM | Superoxide Radical Scavenging Assay EC50 [6]: 57.71 ± 0.16 µg/mL | EC50 [6]: 328 µM

YFYPEL
superoxide scavenging activity [8]: 65.8 µg/mL | EC50 ([8]; read-out: superoxide scavenging activity (value in bracket)): 79.2 µM

CN(CC(=O)O)C(=N)N [Creatine, reference compound]
Methylglyoxal Scavenging EC50 at 37 °C, 2 h ([3]; 37 °C, 2 h): 230.05 ± 0.34 µg/mL | EC50 [3, 13]: 1750 µM | EC50 [3, 14]: 1750 µM
